Read-outs that look alike come from different tables or passages of the source.
Columns and labels:
[1] = tested on: synuclein phosphorylation by endogenous kinase; assay: kinase inhibitor treatment of mouse cortical cultures (MCC), total and phospho-synuclein ELISA; type: cell-based
Experimental: Mouse cortical cultures from fetal (i) Swiss-Webster, (ii) C56BL/6 WT and (iii) C56BL/6 E46K-Synuclein Trangenic mice were prepared and maintained in B27/DMEM/1% Penicillin-Streptomycin at 37° C./10% CO2 for three to fourteen days and then treated with kinase inhibitors.
Cultures were exposed to inhibitors for two hours in B27/DMEM/1% Penicillin-Streptomycin. Cells were immediately washed in 100 μL of PBS plus Mg^2+ and Ca^2+, and harvested in ice-cold CEB minus EGTA plus protease inhibitors, frozen on dry ice and stored at −80° C. until processed. A Micro BCA (Pierce) total protein assay, and total synuclein and phospho-synuclein ELISAs were performed on each plate of treated cells using standard methods.

[2] = tested on: endogenous kinase (synuclein phosphorylation); assay: HEK-293 cells overexpressing synuclein with empty vector, inhibition of synuclein phosphorylation; type: cell-based, human; conditions: 293 cells, Table 18, read-out: EC50, Endogenous Kinase (293)
Experimental: (§1) All vectors had the sequence coding for the protein of interest. Transfection was accomplished using Lipofectamine 2000 (Invitrogen, Carlsbad, Calif.) with 0.08 μg vector. Cells were washed and harvested 48 hours post-transfection. A Micro BCA (Pierce) total protein assay and total synuclein and phospho-synuclein ELISAs were performed on each plate of treated cells.

[3] = tested on: synuclein phosphorylation by endogenous kinase; assay: kinase inhibitor treatment of rat ventral mesencephalon (RVM) cultures transduced with E46K-synuclein; type: cell-based
Experimental: (§2) Rat Ventral Mesencephalon (RVM) cultures were prepared from E15 Wistar rats. The RVM cultures were cultured for 2 days and transduced with 0.75 MOI E46K-Synuclein lentivirus alone, or 0.75 MOI E46K-Synuclein lentivirus plus 0.75 MOI ca-PLK2 lentivirus. […] Transduced cultures were maintained in neuronal media with B27/1% FBS and 37° C./5% CO2 until treated with inhibitors. On DIV 17 (which corresponds to 15 days after viral transduction of the cultures) cells were treated with inhibitors for two hours. Cells were then harvested as detailed above in neuronal media with B27/1% FBS. A Micro BCA (Pierce) total protein assay, and total synuclein and phospho-synuclein ELISAs were performed on each plate of treated cells using standard methods.

PLK2 [4] = molecular target: T1, PLK2 (Homo sapiens, UniProt Q9NYY3); assay: in vitro biochemical assay of PLK2-driven synuclein phosphorylation; conditions: for IC50: in vitro PLK2-driven synuclein phosphorylation, read-out: IC50, Straight Biochemical
Experimental: The reaction was incubated at 37° C. The activity was analyzed by autoradiography.
In vitro biochemical assays using each of the four PLK family members as the kinase to phosphorylate synuclein were conducted.

[5] = tested on: synuclein phosphorylation by constitutively active PLK2 (caPLK2); assay: kinase inhibitor treatment of RVM cultures transduced with E46K-synuclein plus ca-PLK2; type: cell-based; conditions: rat ventral mesencephalon cultures
Experimental: as §2

PLK2 [6] = molecular target: T1, PLK2; assay: HEK-293 cells overexpressing synuclein and PLK2, inhibition of synuclein phosphorylation; type: cell-based; parameters: expressed in transfected cells; host or cells: HEK-293
Experimental: as §1

[7] = tested on: synuclein phosphorylation; assay: overexpression of PLK family members with WT-synuclein in HEK-293 cells, phospho-synuclein ELISA; type: cell-based, human
Experimental: as §1, with “HEK-293 naïve cells were transfected with an expression vector encoding PLK1, PLK2, PLK3, or PLK4 under the control of a CMV promoter, or empty vector, together with an expression vector encoding WT-synuclein. All” for “All”

[8] = tested on: synuclein phosphorylation (serine-129); assay: inhibition of synuclein phosphorylation across the cellular paradigms (primary neuronal cultures and 293 cells); type: cell-based, mouse, rat and human; conditions: cell types tested
[9] = E46K-Synuclein transgenic mouse cortical cultures, read-out: EC50, E46K-Syn TG MCC
[10] = WT mouse cortical cultures, read-out: EC50, WT-MCC

T1 sequence (Q9NYY3 whole entry): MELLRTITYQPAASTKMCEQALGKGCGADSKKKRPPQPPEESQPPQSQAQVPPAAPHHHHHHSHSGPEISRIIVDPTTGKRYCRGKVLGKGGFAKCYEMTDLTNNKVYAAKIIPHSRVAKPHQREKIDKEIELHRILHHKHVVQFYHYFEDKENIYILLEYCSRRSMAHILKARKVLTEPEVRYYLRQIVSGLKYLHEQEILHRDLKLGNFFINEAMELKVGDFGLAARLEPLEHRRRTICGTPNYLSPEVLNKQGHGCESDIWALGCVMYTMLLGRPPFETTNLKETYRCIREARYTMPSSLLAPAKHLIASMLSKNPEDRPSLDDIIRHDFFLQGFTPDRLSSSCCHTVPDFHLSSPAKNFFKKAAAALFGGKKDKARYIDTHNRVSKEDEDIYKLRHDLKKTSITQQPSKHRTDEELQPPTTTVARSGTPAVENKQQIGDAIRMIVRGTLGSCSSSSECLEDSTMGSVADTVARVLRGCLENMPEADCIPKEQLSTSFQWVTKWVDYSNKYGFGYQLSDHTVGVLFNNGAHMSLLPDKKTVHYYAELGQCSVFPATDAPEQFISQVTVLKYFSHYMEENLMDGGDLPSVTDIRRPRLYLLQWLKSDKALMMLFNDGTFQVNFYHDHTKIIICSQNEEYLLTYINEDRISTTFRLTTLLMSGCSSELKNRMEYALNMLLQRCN

Compound	EC50 [3] [µM]	IC50 (PLK2 [4]) [µM]	EC50 [5] [µM]	EC50 [1, 9] [µM]	EC50 [1, 10] [µM]	other results
Brc1c(Br)c(Br)c2[nH]nnc2c1Br [TBB]	–	–	–	–	–	effect on synuclein phosphorylation ([1]; MCC, even at concentrations of 100 μM): no effect
COC[C@H]1OC(=O)c2coc3c2[C@@]1(C)C1=C(C3=O)[C@@H]2CCC(=O)[C@@]2(C)C[C@H]1OC(C)=O [Wortmannin]	> 100	> 100	> 100	> 100	> 100	EC50 ([2]; Homo sapiens, HEK293): > 100 µM; EC50 (PLK2 [6]): > 100 µM
Over-Expressed PLK1	–	–	–	–	–	Proportion of total synuclein that is phoshorylated at ser-129 ([7]; 48 hours post-transfection, with WT-synuclein): 4.1%; Fold Change in Percent Synuclein Phosphorylation ([7]; relative to endogenous kinase (2.0%)): 2.1
Scytonemin	> 100	> 100	> 100	> 100	> 100	EC50 [2]: > 100 µM; inhibition of 50% of synuclein phosphorylation in cells [8]: did not inhibit 50%; inhibition of 50% of synuclein phosphorylation in the in vitro assay (PLK2 [4]; PLK2-driven phosphorylation in vitro): did not inhibit 50%; EC50 (PLK2 [6]; 293 cells, Table 18, read-out: EC50, Over-Expressed PLK2 (293)): > 100 µM

Source: patent US20110207796A1, “ALPHA-SYNUCLEIN KINASE” (Elan Pharma International Limited, priority 2008, published 2011)
